The values below come from patent publication EP0554025A2, “Fluorinated cyclobutyl purines and pyrimidines” (E.R. SQUIBB & SONS, INC., priority 1992, dated 1993).

Assay type in all cases: cell-based
Assay [1] relates to HSV-1 (herpes simplex virus type 1, strain Schooler). The assay is described as follows: HSV-1 plaque reduction antiviral assay in WI-38 cell culture monolayers. The conditions noted are these: WI-38 cell monolayers, plaque reduction after 4 days incubation at 37°C, read-out: ID50 (μM) for the following viruses HSV-1. As to the method: (§1) Assays were performed in cell culture systems to determine the concentrations of compounds that are effective in preventing several kinds of viral infections. HSV-1 (herpes simplex virus type 1, strain Schooler), HSV-2 (herpes simplex virus type 2, strain 186), VZV (varicella zoster virus, strain ELLEN), HCMV (human cytomegalovirus, strain AD 169). HSV-1, HSV-2, HCMV, and VZV antiviral assays: Virus was adsorbed to WI-38 cell culture monolayers in 6 cell culture plates (Costar, Cambridge, MA) for 1 hour prior to addition of maintenance medium containing duplicate dilutions of the test compound. Inhibition of plaque development was evaluated on fixed and stained monolayers after 4 days incubation at 37°C for HSV-1 and HSV-2 and after 6-7 days incubation at 37°C for HCMV and VZV. ID50 values were determined from the drug concentration which conferred at least a 50% plaque reduction compared to virus controls.

For assay [2], the system named is HSV-2 (herpes simplex virus type 2, strain 186). Kind of assay: HSV-2 plaque reduction antiviral assay in WI-38 cell culture monolayers. The conditions noted are these: WI-38 cell monolayers, plaque reduction after 4 days incubation at 37°C, read-out: ID50 (μM) for the following viruses HSV-2. As for the experimental part: as §1
The subject of assay [3] is VZV (varicella zoster virus, strain ELLEN). Kind of assay: VZV plaque reduction antiviral assay in WI-38 cell culture monolayers. Particulars: plaque reduction after 6-7 days incubation at 37°C, read-out: ID50 (μM) for the following viruses VZV. As to the method:
as §1

Assay [4] concerns HCMV (human cytomegalovirus, strain AD 169). Kind of assay: HCMV plaque reduction antiviral assay in WI-38 cell culture monolayers. The conditions noted are these: plaque reduction after 6-7 days incubation at 37°C, read-out: ID50 (μM) for the following viruses HCMV. As to the method: as §1

Like-named read-outs stand apart in the source and are kept apart here.

For `Nc1nc2c(ncn2C2CC(F)(CO)C2CO)c(=O)[nH]1` (stereo not drawn) [Product of Example 1, (1α,2β,3β)-2-Amino-9-[3-fluoro-2,3-bis(hydroxymethyl)cyclobutyl]-1,9-dihydro-6H-purin-6-one], the IC50 was 0.35 to 0.7 µM in assay [1] (Human alphaherpesvirus 1, 96 h); 0.35 to 0.7 µM in assay [2] (Human alphaherpesvirus 2, 96 h); 1.1 µM in assay [3] (Human alphaherpesvirus 3, WI-38 cell monolayers); 7 to 18 µM in assay [4] (Human betaherpesvirus 5, WI-38 cell monolayers).
Regarding `Nc1nc2c(ncn2[C@H]2C[C@@](F)(CO)[C@@H]2O)c(=O)[nH]1` [Product of Example 2, (1 α,2β,3β)-2-Amino-9-[3-fluoro-2-hydroxy-3-(hydroxymethyl)cyclobutyl]-1,9-dihydro-6H-purin-6-one], the IC50 in assay [1] is 37 to 93 µM; in assay [2] it was 37 to 93 µM; in assay [3] (WI-38 cell monolayers), 7 to 19 µM; in assay [4] (WI-38 cell monolayers) it was 37 µM.
